Measurements published in ChEMBL document CHEMBL1201862, “PubChem BioAssay data set” (2004).
The source made the active and inactive calls.

How the values were obtained:
Bcl-2-related protein A1 = target: T1, Bcl-2-related protein A1 (Mus musculus, UniProt Q07440); assay type: functional;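 also: confirmatory dose–response counterscreen on Bfl-1, used to check hits from a UBC13 polyubiquitin inhibitor campaign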
T1 sequence (Q07440 whole entry): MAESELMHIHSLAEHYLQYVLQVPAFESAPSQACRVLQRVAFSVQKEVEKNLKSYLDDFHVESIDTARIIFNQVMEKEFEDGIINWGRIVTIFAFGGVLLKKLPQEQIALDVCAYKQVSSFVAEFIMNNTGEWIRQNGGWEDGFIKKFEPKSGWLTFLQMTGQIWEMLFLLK

[1] = target: T2, Ubiquitin-conjugating enzyme E2 N (Homo sapiens, UniProt P61088); assay type: functional
T2 sequence (P61088 whole entry): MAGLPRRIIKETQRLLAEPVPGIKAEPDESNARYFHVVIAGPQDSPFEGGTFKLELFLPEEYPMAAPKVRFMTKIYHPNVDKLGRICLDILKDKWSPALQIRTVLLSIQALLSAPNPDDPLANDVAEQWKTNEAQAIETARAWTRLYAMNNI

[2] = target: T2, Ubiquitin-conjugating enzyme E2 N; assay type: functional; remark: listed apart in the source
[3] = target: Glyceraldehyde-3-phosphate dehydrogenase (Homo sapiens, UniProt P04406)
[4] = target: T3, Alkaline phosphatase, tissue-nonspecific isozyme (Homo sapiens, UniProt P05186); assay: potency against alkaline phosphatase TNAP – biochemical, luminescent, dose response, SAR follow-up (AID 1056)
T3 sequence (P05186 whole entry): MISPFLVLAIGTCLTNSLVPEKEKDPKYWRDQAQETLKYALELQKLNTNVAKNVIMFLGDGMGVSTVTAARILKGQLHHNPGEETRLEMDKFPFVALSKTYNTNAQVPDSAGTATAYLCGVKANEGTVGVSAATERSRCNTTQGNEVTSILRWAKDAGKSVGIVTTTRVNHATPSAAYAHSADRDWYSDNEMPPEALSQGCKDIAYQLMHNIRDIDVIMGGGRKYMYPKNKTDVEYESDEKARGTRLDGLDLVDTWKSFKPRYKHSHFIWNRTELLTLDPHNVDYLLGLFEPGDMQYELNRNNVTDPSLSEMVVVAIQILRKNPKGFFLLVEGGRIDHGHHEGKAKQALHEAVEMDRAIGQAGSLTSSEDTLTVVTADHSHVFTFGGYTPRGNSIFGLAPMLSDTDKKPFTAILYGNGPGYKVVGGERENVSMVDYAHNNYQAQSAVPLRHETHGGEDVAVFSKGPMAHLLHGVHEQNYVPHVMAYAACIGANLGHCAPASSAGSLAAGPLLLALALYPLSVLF

[5] = target: Induced myeloid leukemia cell differentiation protein Mcl-1 (Homo sapiens, UniProt Q07820); assay type: functional
[6] = target: Eukaryotic translation initiation factor 4E (Mus musculus, UniProt P63073); assay: blockers of eIF4G binding by eIF4E – biochemical, TR-FRET, dose response (AID 855); assay type: functional;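 also: potency for disrupting eIF4E binding to eIF4GI seen as loss of FRET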
[7] = target: T4, Replicative DNA helicase DnaB (Mycobacterium tuberculosis, UniProt P9WMR3); assay: DnaB intein splicing inhibitors, dose response, biochemical, cell-free fluorescence (AID 449749); assay type: functional
T4 sequence (P9WMR3 whole entry): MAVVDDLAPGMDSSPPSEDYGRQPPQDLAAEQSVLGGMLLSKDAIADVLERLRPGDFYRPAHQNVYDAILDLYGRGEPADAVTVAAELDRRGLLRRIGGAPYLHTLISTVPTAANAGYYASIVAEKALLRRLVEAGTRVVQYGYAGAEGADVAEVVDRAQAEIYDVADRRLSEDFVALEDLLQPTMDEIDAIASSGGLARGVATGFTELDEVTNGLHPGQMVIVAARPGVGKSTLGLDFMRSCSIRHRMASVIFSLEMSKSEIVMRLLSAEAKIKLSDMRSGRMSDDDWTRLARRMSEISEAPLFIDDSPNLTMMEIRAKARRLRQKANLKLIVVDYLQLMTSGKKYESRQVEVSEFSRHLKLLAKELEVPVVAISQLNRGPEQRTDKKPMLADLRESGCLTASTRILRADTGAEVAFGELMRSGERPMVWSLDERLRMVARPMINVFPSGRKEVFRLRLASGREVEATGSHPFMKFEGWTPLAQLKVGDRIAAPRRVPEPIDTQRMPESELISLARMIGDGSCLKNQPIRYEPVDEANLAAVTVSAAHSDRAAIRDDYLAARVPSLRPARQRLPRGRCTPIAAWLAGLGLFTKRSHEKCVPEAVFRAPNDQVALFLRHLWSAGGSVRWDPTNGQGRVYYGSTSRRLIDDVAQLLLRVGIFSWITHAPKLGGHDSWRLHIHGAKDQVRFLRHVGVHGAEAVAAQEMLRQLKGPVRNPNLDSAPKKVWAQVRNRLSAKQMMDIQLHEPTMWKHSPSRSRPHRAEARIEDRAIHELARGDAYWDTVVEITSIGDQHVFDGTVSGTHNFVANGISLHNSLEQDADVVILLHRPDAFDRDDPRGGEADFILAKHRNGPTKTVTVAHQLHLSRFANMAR

Protein RecA = target: T5, Protein RecA (Mycobacterium tuberculosis, UniProt P9WHJ3); assay: Fluorescence Cell-Free Homogeneous Dose Retest to Identify Inhibitors of RecA-Intein Splicing Activity. [Related pubchem assays (depositor defined):AID2097, AID2223, AID489010, AID492950]; assay type: functional
T5 sequence (P9WHJ3 whole entry): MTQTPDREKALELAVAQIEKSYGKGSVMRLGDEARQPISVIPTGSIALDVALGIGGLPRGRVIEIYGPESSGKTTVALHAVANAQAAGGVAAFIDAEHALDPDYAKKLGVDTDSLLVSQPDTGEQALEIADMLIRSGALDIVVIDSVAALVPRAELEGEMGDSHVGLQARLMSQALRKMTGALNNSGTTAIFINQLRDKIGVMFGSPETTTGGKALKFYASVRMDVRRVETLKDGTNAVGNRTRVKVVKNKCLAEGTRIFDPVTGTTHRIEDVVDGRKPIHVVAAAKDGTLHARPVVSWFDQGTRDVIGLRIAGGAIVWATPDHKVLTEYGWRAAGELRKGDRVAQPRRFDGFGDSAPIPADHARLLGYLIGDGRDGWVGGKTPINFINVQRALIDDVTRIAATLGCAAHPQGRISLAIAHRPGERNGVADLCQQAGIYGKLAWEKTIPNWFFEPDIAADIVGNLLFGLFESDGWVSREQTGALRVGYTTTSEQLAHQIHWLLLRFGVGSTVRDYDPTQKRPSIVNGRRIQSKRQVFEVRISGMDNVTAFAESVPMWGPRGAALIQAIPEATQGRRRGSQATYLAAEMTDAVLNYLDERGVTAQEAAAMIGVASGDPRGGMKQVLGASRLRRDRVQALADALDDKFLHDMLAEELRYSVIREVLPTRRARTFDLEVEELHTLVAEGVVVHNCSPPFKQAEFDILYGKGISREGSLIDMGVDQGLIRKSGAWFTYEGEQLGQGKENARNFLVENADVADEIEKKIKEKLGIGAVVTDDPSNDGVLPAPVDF

[8] = target: T6, DNA repair protein RAD52 homolog (Homo sapiens, UniProt P43351); assay type: functional, biochemical
T6 sequence (P43351 whole entry): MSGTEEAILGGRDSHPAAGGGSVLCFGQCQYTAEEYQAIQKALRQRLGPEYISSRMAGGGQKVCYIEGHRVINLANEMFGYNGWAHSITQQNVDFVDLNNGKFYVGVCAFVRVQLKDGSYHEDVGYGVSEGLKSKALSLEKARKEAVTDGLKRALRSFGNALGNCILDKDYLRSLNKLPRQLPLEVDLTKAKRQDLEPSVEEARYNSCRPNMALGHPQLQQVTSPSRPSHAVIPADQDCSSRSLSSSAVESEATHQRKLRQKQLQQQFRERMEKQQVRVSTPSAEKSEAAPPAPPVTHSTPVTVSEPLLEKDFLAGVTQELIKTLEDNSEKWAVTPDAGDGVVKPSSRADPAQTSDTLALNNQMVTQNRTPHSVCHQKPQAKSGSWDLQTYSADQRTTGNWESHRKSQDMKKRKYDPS

cells [9] = assay type: functional, cell-based
cells [10] = assay type: functional, cell-based; remark: listed apart in the source
[11] = THP-1 cell cytotoxicity, dose response, cytotoxicity control for non-replicating M. tuberculosis project (AID 489025); assay type: functional
[12] = HepG2 cell cytotoxicity, dose response, cytotoxicity control for non-replicating M. tuberculosis project (AID 489018); assay type: functional; conditions: Mycobacterium tuberculosis
[13] = Vero E6 cell cytotoxicity, dose response, cytotoxicity control for non-replicating M. tuberculosis project, secondary assay (AID 492998); assay type: functional, VeroE6; conditions: Vero C1008
SUMO-activating enzyme [14] = target: T7, SUMO-activating enzyme (Homo sapiens, UniProt Q9UBT2); assay: blockers of UBC9-mediated SUMO conjugation – biochemical, AlphaScreen, SUMOylation inhibitor project, confirmation (AID 2018); assay type: functional
SUMO-activating enzyme [15] = target: T7, SUMO-activating enzyme; assay: blockers of SAE1/SAE2–UBC9 SUMO transfer – biochemical, HTRF, uHTS, primary screen (AID 2006); assay type: protein-complex assay
[16] = target: T8, Heat shock factor protein 1 (Mus musculus, UniProt P38532); assay: enhancement of HSF1-driven luciferase signal – cell-based, NIH3T3, luminescence, dose retest, confirmation (AID 435004); assay type: functional;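 also: stress induced by proteasome inhibitor MG132 added 30 min after compound; luciferase reporter driven by HSF1 response element in NIH3T3 cells; actives raise luminescence as potentiators of the MG132 stress response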
T8 sequence (P38532 whole entry): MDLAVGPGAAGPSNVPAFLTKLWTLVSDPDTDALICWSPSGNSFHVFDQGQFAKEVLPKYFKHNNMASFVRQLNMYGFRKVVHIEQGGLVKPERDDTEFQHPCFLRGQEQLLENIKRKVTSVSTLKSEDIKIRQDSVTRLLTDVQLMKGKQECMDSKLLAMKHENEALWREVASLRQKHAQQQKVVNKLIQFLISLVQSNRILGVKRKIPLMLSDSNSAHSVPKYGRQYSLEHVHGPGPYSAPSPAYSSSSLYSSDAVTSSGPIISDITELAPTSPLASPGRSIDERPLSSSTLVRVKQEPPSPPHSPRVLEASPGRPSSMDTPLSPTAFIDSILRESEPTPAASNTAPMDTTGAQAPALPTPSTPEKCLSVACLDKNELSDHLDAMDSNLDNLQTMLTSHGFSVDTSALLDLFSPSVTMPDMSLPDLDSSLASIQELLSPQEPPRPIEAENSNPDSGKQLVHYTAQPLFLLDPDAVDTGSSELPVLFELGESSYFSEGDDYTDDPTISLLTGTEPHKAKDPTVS

[17] = target: T9, Carboxy-terminal domain RNA polymerase II polypeptide A small phosphatase 1 (Homo sapiens, UniProt Q9GZU7); assay: CTDSP1 inhibitors, concentration-response, biochemical, absorbance readout, ultra-high-throughput screen actives (AID 540297); assay type: functional
T9 sequence (Q9GZU7 whole entry): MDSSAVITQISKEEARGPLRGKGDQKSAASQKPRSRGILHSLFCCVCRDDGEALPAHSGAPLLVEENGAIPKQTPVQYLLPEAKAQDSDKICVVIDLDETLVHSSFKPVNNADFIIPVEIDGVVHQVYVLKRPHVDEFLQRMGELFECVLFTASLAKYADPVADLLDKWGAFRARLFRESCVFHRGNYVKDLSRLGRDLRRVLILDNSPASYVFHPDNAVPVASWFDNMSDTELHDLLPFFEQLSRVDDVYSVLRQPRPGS

[18] = viability of uninfected HEp-2 cells – cell-based, HTS, cytotoxicity control for RSV inhibitor project, dose response (AID 2410); assay type: functional; conditions: human respiratory syncytial virus

Chain of Glyceraldehyde-3-phosphate dehydrogenase (P04406 whole entry): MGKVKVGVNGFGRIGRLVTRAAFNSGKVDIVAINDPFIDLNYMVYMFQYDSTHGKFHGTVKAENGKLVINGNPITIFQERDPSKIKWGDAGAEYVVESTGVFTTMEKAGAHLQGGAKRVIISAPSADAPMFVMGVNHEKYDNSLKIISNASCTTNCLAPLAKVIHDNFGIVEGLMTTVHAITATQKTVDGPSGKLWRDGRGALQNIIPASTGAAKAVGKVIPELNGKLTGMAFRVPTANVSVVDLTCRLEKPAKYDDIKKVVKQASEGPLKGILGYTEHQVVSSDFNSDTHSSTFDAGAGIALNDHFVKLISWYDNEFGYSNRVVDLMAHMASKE
Chain of Eukaryotic translation initiation factor 4E (P63073 whole entry): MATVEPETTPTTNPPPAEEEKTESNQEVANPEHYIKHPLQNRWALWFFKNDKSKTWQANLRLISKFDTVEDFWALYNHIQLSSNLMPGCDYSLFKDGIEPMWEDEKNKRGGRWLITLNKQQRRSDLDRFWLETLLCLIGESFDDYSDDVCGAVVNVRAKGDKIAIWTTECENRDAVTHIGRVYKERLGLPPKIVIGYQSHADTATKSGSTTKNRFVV
T7 sequence (Q9UBE0 whole entry): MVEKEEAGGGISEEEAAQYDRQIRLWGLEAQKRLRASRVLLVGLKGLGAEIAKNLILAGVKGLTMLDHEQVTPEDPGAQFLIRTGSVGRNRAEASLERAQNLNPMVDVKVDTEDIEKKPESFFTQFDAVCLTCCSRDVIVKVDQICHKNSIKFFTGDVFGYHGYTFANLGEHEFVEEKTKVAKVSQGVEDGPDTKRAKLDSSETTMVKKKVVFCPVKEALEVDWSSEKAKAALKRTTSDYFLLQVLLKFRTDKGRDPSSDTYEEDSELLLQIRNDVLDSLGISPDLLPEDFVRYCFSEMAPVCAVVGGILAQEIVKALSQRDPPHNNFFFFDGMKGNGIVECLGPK
T7 sequence (Q9UBT2 whole entry): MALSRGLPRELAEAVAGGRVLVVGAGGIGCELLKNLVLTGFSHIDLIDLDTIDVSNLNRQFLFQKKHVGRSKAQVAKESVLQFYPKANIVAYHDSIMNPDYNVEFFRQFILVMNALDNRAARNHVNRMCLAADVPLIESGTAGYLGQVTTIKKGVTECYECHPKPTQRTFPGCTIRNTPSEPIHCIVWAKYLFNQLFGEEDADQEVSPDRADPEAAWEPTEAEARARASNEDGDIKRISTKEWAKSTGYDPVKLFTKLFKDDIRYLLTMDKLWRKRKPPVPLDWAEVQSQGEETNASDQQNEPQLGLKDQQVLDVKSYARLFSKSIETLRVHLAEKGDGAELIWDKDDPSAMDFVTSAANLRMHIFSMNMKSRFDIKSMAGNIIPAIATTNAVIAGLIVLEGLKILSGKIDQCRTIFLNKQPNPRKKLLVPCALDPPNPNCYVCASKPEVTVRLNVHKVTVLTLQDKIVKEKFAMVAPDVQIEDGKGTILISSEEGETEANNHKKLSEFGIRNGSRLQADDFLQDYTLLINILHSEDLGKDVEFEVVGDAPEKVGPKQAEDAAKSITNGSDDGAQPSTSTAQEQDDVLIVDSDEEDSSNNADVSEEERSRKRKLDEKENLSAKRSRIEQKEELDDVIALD
Chain of Induced myeloid leukemia cell differentiation protein Mcl-1 (Q07820 whole entry): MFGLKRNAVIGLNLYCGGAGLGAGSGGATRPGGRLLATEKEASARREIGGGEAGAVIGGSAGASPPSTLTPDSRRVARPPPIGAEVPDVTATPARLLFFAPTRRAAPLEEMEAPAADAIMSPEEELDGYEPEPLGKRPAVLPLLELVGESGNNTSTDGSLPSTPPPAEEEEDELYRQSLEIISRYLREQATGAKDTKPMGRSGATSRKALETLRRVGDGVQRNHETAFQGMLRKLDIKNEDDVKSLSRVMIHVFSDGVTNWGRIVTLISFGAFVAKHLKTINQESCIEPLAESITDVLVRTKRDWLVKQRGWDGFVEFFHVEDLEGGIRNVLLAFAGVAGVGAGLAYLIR

COc1ccc(Cn2c(SCC(=O)NCc3ccco3)nc3ccsc3c2=O)cc1
IC50 (Bcl-2-related protein A1): > 20 µM (inactive)
IC50 [1]: 10.4 µM (active)
IC50 [2]: 14.4 µM (active)

Cc1ccccc1C(=O)N1CCN(c2ccc(NC(=S)NC(=O)c3cccs3)cc2)CC1
IC50 (Bcl-2-related protein A1): > 20 µM (inactive)
IC50 [1]: 10.8 µM (active)
IC50 [2]: 15.6 µM (active)

O=S(=O)(Nc1ccncn1)c1ccccc1
IC50 [3]: > 100 µM (not active)
IC50 [4]: > 100 µM (inactive)

Nc1ccc(N)c(C(=O)O)c1
IC50 [5]: 1.59 µM (active)
IC50 [6]: 13.4 µM (active)
AC50 [7]: 6.81 µM (active)
EC50 (Protein RecA): 3.76 µM (active)

CC(OC(=O)c1cc(-c2ccc(Br)cc2)[nH]n1)C(=O)NC(C)(C)C (stereo unspecified)
IC50 [3]: > 100 µM (not active)
IC50 [4]: 19.5 µM (active)

CCC(OCC(O)CN1CCN(CCN2C(=O)c3cccc4cccc(c34)C2=O)CC1)c1ccccc1 (stereo unspecified)
IC50 (Bcl-2-related protein A1): > 20 µM (inactive)
IC50 [1]: 12.4 µM (active)
IC50 [2]: 9.26 µM (active)

CN1CCN(CCCNC(=O)c2ccc(/C=C3\Sc4ccccc4N(Cc4ccc(F)cc4)C3=O)cc2)CC1
IC50 [6]: 50 µM (inactive)
AC50 [8]: 8.2 µM (active)

O=C(CCc1ccccc1)N/N=C/c1cc(Br)ccc1O
EC50 (cells [9]): 286 µM (active)
EC50 (cells [10]): 261 µM (active)
CC50 [11]: 6.36 µM (active)
CC50 [12]: 13.5 µM (active)
CC50 [13]: 12.3 µM (active)

O=C(N/N=C/c1ccc([N+](=O)[O-])o1)c1cc2c(ccc3ccccc32)o1
IC50 (SUMO-activating enzyme [14]): 28.4 µM (active)
IC50 (SUMO-activating enzyme [15]): 11 µM (active)
IC50 [6]: 50 µM (inactive)

O=C(N/N=C/c1ccc(-c2cccc([N+](=O)[O-])c2)o1)c1ccccc1O
IC50 (SUMO-activating enzyme [14]): 16.3 µM (active)
IC50 (SUMO-activating enzyme [15]): 15.9 µM (active)
EC50 [16]: > 260 µM (inactive)
IC50 [17]: 3.68 µM (active)

COC(=O)c1cc(-c2ccc(OC)cc2)[nH]n1
IC50 [3]: > 100 µM (not active)
IC50 [4]: 2.33 µM (active)

Cc1ccc(C2=NN(C(=O)CCC(=O)O)C(c3cn(-c4ccccc4)nc3-c3ccc(C)cc3)C2)cc1 (stereo unspecified)
CC50 [18]: 24.8 µM (active)
IC50 (SUMO-activating enzyme [14]): 4.8 µM (active)
IC50 (SUMO-activating enzyme [15]): 20.1 µM (active)
